Data: patent publication US7169411B1, “Composition for delivery of biological agents and methods for the preparation thereof” (The University of Nebraska Board of Regents, priority 1997, dated 2007)

Assay: Potentiometric binding isotherms of surfactants to polyethylene oxide-block-poly(sodium methacrylate)
Type: physicochemical
Conditions: FIG. 1
Description: While not wishing to be bound by any particular theory, it is believed that the above-described surfactants and block copolymers of opposite charge form stable complexes due to cooperative binding. (See, e.g., Goddard, In Interactions of Surfactants with Polymers and Proteins. Goddard and Ananthapadmanabhan, Eds., pp. 171 et seq., CRC Press, Boca Raton, Ann Arbor, London, Tokyo, 1992). Cooperative binding occurs in the sense that binding of surfactant molecules to the block copolymer is enhanced by the presence of other molecules of the same or a different surfactant already bound to the same copolymer. According to the cooperative binding mechanism which is believed to underlie this invention, surfactant binds electrostatically to the oppositely charged P-type segments of the block copolymer to form supramolecular complexes. […]
B. The binding isotherms of cetylpyridinium bromide (Sigma Co.) and dodecylpyridinium bromide (Sigma Co.) with the polyethylene oxide-block-poly(sodium methacrylate) copolymer were determined potentiometrically by using the following ion-selective electrode: Ag/AgCl | 1 M NH4NO3 agar bridge | reference solution (surfactant, 2.5·10^−4 M) | PVC membrane | sample solution | 1 M NH4NO3 agar bridge | Ag/AgCl. […] The electromotive force (emf) of the cell was measured with a digital Radiometer pHM-83 pH-meter. […]

CCCCCCCCCCCC[n+]1ccccc1.[Br-] [dodecylpyridinium bromide]
stability of the complex with the block copolymer relative to cetylpyridinium bromide: decreases the stability of the complex more than ten-fold
